# Key:
# c-Myc = c-Myc level in B16F10 tumour lysates of mice (Western blot); type: in vivo, mouse; details: intratumoral 5 mg/kg every 4 h up to 8 h
# Procedure: (§1) B16F10 cells at a density of 2×10^6 cells were injected subcutaneously into the right flank of six- to eight-week-old mice. Once the tumours became palpable, intratumoral injection of the buffer solution as vehicle, JQ1, and JW4 and JQ1-CBT at dosage of 5 mg/kg were performed for every 4 h up to 8 h. The mice were sacrificed and protein extraction were carried out. The protein levels in lysis samples were analysed by western blot by following the protocol in Example 12. Histology and immunofluorescence staining were performed by following the protocol in Example 13. Specifically, the resected tumours were fixed in 4% paraformaldehyde for 48 h, washed with PBS, and gradually transferred to 15% sucrose, followed by 30% sucrose before being embedded in O.C.T. compound. Five-micrometre cryosections of the tumour samples were dehydrated and blocked with a blocking buffer containing 2% BSA, 1% Tween 20, 3% Triton X, and horse serum for an hour before being incubated with primary antibodies, followed by a washing step and then incubation with secondary antibodies. The primary antibodies used were Ki67 and CD31. […] Images were captured using the EVOS M5000 imaging system (Thermo Fischer Scientific, Waltham, MA, USA) and quantified using ImageJ.
# zebrafish larvae = test: Vascularization of vhl mutant and wide type zebrafish larvae (confocal imaging); type: in vivo; details: vhl^hu2117 crosses, 10 μM; non-treatment approximately one quarter
# Procedure: Vasculature zebrafishes were obtained from natural crosses of the AB wild-type strain or vhl^+/hu2117 carriers on the fli1a:egfp^y1 transgenic background (which fluorescently marks the vasculature). JW4 and JQ1-CBT were dissolved in DMSO and the mixture was applied to embryos at equimolar concentration of 10 μM, with J252 (10 μM) and JQ1 (10 μM) used for the control experiments. […] The vascular plexus was imaged on a Zeiss LSM800 confocal microscope. Green: blood vessel tracker, .ex: 488 nm, .em: 520/30 nm; red: . ex: 564 nm, .em: 610/30 nm.
# B16F10 mouse melanoma = test: Antitumour efficacy in B16F10 tumour bearing C57BL/6J mice; type: in vivo; details: daily treatment, 5 days, vs vehicle
# BRD4 = target: T1, BRD4 (Mus musculus, UniProt Q9ESU6); test: BRD4 level in B16F10 tumour lysates of mice (Western blot); type: in vivo; details: intratumoral 5 mg/kg every 4 h up to 8 h
# T1 construct: from tissue; host or cells: B16F10 tumour in C57BL/6J mice, tumour lysate
# Excerpt: We further investigated the feasibility of tumour microenvironment-activatable epigenetic BRD4 protein degradation and further validated the potential anti-tumour efficacy of ENCTAC in a C57BL/6J mice model. Typically, we implanted B16F10 mouse melanoma cell line into the right flank of living mice and the solid tumour was monitored to grow until palpable size before undergoing targeted protein disruption and therapeutic studies (FIG. 24a). The living mice bearing tumours were first subject to NTR-Cy7, a reported NTR enzyme responsive probe molecule (Li, Y. et al., J. Am. Chem. Soc. 2015, 137, 6407-[…]), followed by animal imaging scanning.
# B16F10 cells at a density of 2×10^6 cells were injected subcutaneously into the right flank of six- to eight-week-old mice. Once the tumours became palpable, intratumoral injection of the buffer solution as vehicle, JQ1, and JW4 and JQ1-CBT at dosage of 5 mg/kg were performed for every 4 h up to 8 h. The mice were sacrificed and protein extraction were carried out. The protein levels in lysis samples were analysed by western blot by following the protocol in Example 12. Histology and immunofluorescence staining were performed by following the protocol in Example 13. […] Images were captured using the EVOS M5000 imaging system (Thermo Fischer Scientific, Waltham, MA, USA) and quantified using ImageJ.
# HIF-1α [1] = test: HIF-1α level in hypoxic Hela cells (immunofluorescence imaging, Western blot); type: cell-based, human
# Procedure: (§2) HeLa, Hek293T, MDA-MB-231, 4T1 or B16F10 cells (1.5×10^6 cells/mL) were treated with J266 (10 μM) for 6 h before incubating with JQ1-CBT at the indicated concentrations and time. This entire incubation was performed in normoxia condition. For NTR-moiety caged JW4, the cells were treated with JW4 (10 μM) 6 h prior to the addition of JQ1-CBT for a subsequent 12 h, and was performed entirely under hypoxic condition. Comparison of the downstream effect between the controls and drug-treated cells were completely executed in hypoxic condition. To work up, the cells were washed with cold PBS (pH 7.4) twice, and lysed with RIPA buffer supplemented with protease inhibitor cocktail and phosphatase inhibitor cocktail for 10 min at 4° C. Then, the lysed cells were collected and centrifuged at 13,500 rpm for 20 min at 4° C. The supernatant was collected and the protein concentration was analyzed by NanoDrop™ 2000/2000c Spectrophotometers. The lysate volumes were fine-tuned and loaded onto a Mini-PROTEAN® TGX™ 4-20% Precast Gel and was separated by SDS-PAGE. Then, the gel was transferred onto a PVDF membrane (100 V, 90 min, 4° C.), washed with TBS-T twice, and blocked with 1% BSA for 1 h at r.t. Next, the membrane was incubated with primary antibody overnight at 4° C., washed thrice with TBS-T, followed by incubation with goat anti-rabbit IgG (H+L) Secondary Antibody, HRP for 1 h. The membrane was supplemented with Radiance Q chemiluminescent ECL substrate and visualized using Amersham™ ImageQuant™ 800 biomolecular imager. B-Tubulin was used as the internal control.
# Hela cells were plated at a density of 8×10^4 cells/mL in each well of the eight-well ibidi dishes before experiment. To sustain the hypoxia-induced factor throughout the drug treatment process, drug incubation was performed entirely in hypoxic chamber. […] The fluorescence of the alleviated HIF-1α expression upon drug treatment was visualized with Carl Zeiss LSM 800 microscopes (Hoechst 33258: Ex=405 nm, Em=460/50 nm; Alexa Fluor 488: Ex=488 nm, Em=515/30 nm; Alexa Fluor 594: Ex=561 nm, Em=617/20 nm).
# CA9 = CA9 level in hypoxic Hela cells (Western blot); type: cell-based, human
# Procedure: as §2, with “The membrane was supplemented with Radiance Q chemiluminescent ECL substrate and visualized using Amersham™ ImageQuant™ 800 biomolecular imager. B-Tubulin was used as the internal control.” left out
# HIF-1α [2] = test: HIF-1α level in B16F10 tumour lysates of mice (Western blot); type: in vivo, mouse; details: intratumoral 5 mg/kg every 4 h up to 8 h
# Procedure: as §1
smiles,measurement,setting,value
Cc1sc2c(c1C)C(c1ccc(Cl)cc1)=N[C@@H](CC(=O)OC(C)(C)C)c1nnc(C)n1-2 [JQ1],c-Myc expression in tumour,c-Myc,downgrade c-Myc expression
same,vascularized larvae,zebrafish larvae,21.3%
same,tumour progression (serial volumetric measurement),B16F10 mouse melanoma,reduced tumour growth
same,BRD4 protein level in tumour,BRD4,trivial effect
same,HIF-1α protein level,HIF-1α [1],did not alter
same,CA9 amount,CA9,partially downgrade
same,HIF-1α protein level in tumour,HIF-1α [2],trivial effect
